The record followed here is patent publication US20230103791A1 (GLAXOSMITHKLINE INTELLECTUAL PROPERTY DEVELOPMENT LIMITED, priority 2019, published 2023).

T1 sequence (Q9Y5Y9 whole entry): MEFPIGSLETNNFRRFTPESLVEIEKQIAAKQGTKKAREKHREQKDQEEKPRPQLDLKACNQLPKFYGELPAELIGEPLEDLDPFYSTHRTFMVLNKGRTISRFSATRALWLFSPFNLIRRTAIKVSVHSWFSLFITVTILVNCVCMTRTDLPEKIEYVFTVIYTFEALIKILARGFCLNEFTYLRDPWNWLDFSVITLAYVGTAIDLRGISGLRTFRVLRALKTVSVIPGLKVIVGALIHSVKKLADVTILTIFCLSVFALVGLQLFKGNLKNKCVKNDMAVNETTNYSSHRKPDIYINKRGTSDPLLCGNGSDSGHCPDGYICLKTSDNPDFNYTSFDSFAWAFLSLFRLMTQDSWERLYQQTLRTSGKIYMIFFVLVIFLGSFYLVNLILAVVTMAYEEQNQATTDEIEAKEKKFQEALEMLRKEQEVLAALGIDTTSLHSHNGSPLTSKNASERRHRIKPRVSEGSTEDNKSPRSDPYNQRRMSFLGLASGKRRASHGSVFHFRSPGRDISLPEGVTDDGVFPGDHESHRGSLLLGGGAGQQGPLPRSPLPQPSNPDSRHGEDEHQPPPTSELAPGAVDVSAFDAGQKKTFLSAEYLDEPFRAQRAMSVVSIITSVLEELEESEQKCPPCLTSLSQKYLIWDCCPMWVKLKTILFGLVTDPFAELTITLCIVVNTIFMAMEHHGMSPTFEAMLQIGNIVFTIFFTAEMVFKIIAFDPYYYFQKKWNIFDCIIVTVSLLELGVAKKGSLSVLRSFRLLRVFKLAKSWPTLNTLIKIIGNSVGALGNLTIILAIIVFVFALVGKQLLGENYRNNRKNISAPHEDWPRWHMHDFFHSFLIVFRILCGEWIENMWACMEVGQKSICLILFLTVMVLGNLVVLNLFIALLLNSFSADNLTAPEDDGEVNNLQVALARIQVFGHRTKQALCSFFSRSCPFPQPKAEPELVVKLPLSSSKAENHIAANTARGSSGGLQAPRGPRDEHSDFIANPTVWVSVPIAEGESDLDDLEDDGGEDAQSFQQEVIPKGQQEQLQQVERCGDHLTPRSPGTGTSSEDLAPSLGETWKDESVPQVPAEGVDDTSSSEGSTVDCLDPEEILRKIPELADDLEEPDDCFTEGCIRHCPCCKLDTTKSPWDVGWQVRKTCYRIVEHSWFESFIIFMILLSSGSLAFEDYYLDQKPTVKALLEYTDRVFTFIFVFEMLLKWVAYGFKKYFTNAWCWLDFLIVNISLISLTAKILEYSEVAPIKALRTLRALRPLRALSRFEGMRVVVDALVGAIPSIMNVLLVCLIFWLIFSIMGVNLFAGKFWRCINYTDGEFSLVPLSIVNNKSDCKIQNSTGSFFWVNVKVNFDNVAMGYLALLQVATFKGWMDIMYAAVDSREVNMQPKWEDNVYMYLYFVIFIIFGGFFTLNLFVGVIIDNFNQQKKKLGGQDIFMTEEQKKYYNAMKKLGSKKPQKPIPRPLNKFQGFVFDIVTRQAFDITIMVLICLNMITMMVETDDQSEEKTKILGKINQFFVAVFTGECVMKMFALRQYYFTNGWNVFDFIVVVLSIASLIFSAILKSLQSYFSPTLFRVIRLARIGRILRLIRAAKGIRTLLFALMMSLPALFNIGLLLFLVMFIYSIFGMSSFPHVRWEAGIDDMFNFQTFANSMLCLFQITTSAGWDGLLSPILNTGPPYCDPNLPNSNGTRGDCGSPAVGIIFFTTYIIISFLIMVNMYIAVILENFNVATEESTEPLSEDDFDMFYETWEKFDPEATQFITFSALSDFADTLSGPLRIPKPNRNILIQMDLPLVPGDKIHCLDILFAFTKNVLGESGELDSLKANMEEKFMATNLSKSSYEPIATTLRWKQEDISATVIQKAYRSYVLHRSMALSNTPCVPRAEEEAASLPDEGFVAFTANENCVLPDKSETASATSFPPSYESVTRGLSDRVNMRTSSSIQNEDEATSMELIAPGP
T1 sequence (Q07699 19-218 partner): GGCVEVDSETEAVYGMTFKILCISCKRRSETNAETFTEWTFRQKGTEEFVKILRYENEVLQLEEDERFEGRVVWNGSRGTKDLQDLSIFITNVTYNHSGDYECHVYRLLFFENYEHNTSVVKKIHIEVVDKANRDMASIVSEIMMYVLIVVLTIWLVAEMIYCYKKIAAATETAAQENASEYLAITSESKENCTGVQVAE

This test addresses T1, human Nav1.8 (Homo sapiens, UniProt Q9Y5Y9).
T1 construct: expressed in transfected cells; host or cells: HEK293 (HEK293-Nav1.8)
Kind of test: Nav1.8 sodium channels assay, QPatch 48 HTX electrophysiology in HEK293-Nav1.8 cells. As to conditions: Table 1; HEK293-Nav1.8, QPatch 48 HTX, half inactivation state voltage protocol (V1/2); single run or average of two or more runs; read-out: Nav1.8 pIC50 (converted). Format: cell-based. A digest of the protocol: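 HEK293 cells co-expressing human Nav1.8, Navβ1 and TREK1 were voltage-clamped on QPatch 48 HTX. The V1/2 protocol ran at 0.07 Hz: hold −100 mV, 20 ms to 0 mV, 8 s at −46 mV, 20 ms at −100 mV, then 20 ms at 0 mV (P2). P2 current was fitted over 6-8 concentrations for IC50, with vehicle wells used to correct for run-down.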
On to `Cc1cc(F)ccc1N1c2cc(C(F)(F)F)ccc2C(=O)N(c2ccc(=O)[nH]c2)C1C` (stereo not drawn) [drawing 275, 1-(4-fluoro-2-methylphenyl)-2-methyl-3-(6-oxo-1,6-dihydropyridin-3-yl)-7-(trifluoromethyl)-2,3-dihydroquinazolin-4(1H)-one], for which the IC50 was 1.26 µM. Turning to `O=C1c2ccc(C(F)(F)F)cc2N(c2ccc(F)cc2Cl)CN1c1ccc(=O)[nH]c1` [drawing 276, 1-(2-chloro-4-fluorophenyl)-3-(6-oxo-1,6-dihydropyridin-3-yl)-7-(trifluoromethyl)-2,3-dihydroquinazolin-4(1H)-one], the IC50 is 0.501 µM. With `O=C1c2ccc(C(F)(F)F)cc2N(c2ccc(F)cc2OCCO)CN1c1ccc(=O)[nH]c1` [drawing 277, 1-(4-fluoro-2-(2-hydroxyethoxy)phenyl)-3-(6-oxo-1,6-dihydropyridin-3-yl)-7-(trifluoromethyl)-2,3-dihydroquinazolin-4(1H)-one] the figure was 6.31 µM; with `O=C1c2ccc(C(F)(F)F)cc2N(c2ccc(F)cc2F)CN1c1ccc(=O)[nH]c1` [drawing 278, 1-(2,4-difluorophenyl)-3-(6-oxo-1,6-dihydropyridin-3-yl)-7-(trifluoromethyl)-2,3-dihydroquinazolin-4(1H)-one], 0.794 µM. With `Cc1cc(F)ccc1N1CN(c2ccc(=O)[nH]c2)C(=O)c2ccc(C#N)cc21` [drawing 279, 1-(4-fluoro-2-methylphenyl)-4-oxo-3-(6-oxo-1,6-dihydropyridin-3-yl)-1,2,3,4-tetrahydroquinazoline-7-carbonitrile] the figure was 1.58 µM; with `CCc1cc(F)ccc1N1CN(c2ccc(=O)[nH]c2)C(=O)c2ccc(C(F)(F)F)cc21` [drawing 280, 1-(2-ethyl-4-fluorophenyl)-3-(6-oxo-1,6-dihydropyridin-3-yl)-7-(trifluoromethyl)-2,3-dihydroquinazolin-4(1H)-one], 0.251 µM. As to `COc1cc(F)ccc1N1CN(c2ccc(=O)[nH]c2)C(=O)c2c1cccc2C(F)(F)F` [drawing 281, 1-(4-fluoro-2-methoxyphenyl)-3-(6-oxo-1,6-dihydropyridin-3-yl)-5-(trifluoromethyl)-2,3-dihydroquinazolin-4(1H)-one], the IC50 is 6.31 µM.

`Cc1cc(F)ccc1N1CN(c2ccc(=O)[nH]c2)C(=O)c2ccc(C(F)(F)F)c(Cl)c21` [drawing 282, 8-chloro-1-(4-fluoro-2-methylphenyl)-3-(6-oxo-1,6-dihydropyridin-3-yl)-7-(trifluoromethyl)-2,3-dihydroquinazolin-4(1H)-one]: the IC50 is 6.31 µM.

Regarding `Cc1cc(Br)ccc1N1CN(c2ccc(=O)[nH]c2)C(=O)c2ccc(C(F)(F)F)cc21` [drawing 283, 1-(4-bromo-2-methylphenyl)-3-(6-oxo-1,6-dihydropyridin-3-yl)-7-(trifluoromethyl)-2,3-dihydroquinazolin-4(1H)-one], the IC50 was 0.316 µM.

`Cc1cc(F)ccc1N1CN(c2ccc(=O)[nH]c2)C(=O)c2ccc(C(F)(F)F)c(C)c21` [drawing 284, 1-(4-fluoro-2-methylphenyl)-8-methyl-3-(6-oxo-1,6-dihydropyridin-3-yl)-7-(trifluoromethyl)-2,3-dihydroquinazolin-4(1H)-one]: the IC50 was 6.31 µM. For `Cc1[nH]c(=O)ccc1N1CN(c2ccc(F)cc2)c2cc(C(F)(F)F)ccc2C1=O` [drawing 285, 1-(4-fluorophenyl)-3-(2-methyl-6-oxo-1,6-dihydropyridin-3-yl)-7-(trifluoromethyl)-2,3-dihydroquinazolin-4(1H)-one] the value was 0.126 µM; for `Cc1cc(F)ccc1N1CN(c2ccc(=O)[nH]c2C)C(=O)c2cc(C(F)(F)F)ccc21` [drawing 286, 1-(4-fluoro-2-methylphenyl)-3-(2-methyl-6-oxo-1,6-dihydropyridin-3-yl)-6-(trifluoromethyl)-2,3-dihydroquinazolin-4(1H)-one], 0.0158 µM.

As for `Cc1cc(C#N)ccc1N1CN(c2ccc(=O)[nH]c2C)C(=O)c2ccc(C(F)(F)F)cc21` [drawing 287, 3-methyl-4-(3-(2-methyl-6-oxo-1,6-dihydropyridin-3-yl)-4-oxo-7-(trifluoromethyl)-3,4-dihydroquinazolin-1(2H)-yl)benzonitrile], the IC50 is 0.0631 µM. For `Cc1cc(F)ccc1N1CN(c2ccc(=O)[nH]c2C)C(=O)c2ccc(C(F)(F)F)nc21` [drawing 288, 1-(4-fluoro-2-methylphenyl)-3-(2-methyl-6-oxo-1,6-dihydropyridin-3-yl)-7-(trifluoromethyl)-2,3-dihydropyrido[2,3-d]pyrimidin-4(1H)-one] the value was 0.251 µM. Turning to `Cc1ncccc1N1CN(c2ccc(=O)[nH]c2C)C(=O)c2ccc(C(F)(F)F)cc21` [drawing 289, 3-(2-methyl-6-oxo-1,6-dihydropyridin-3-yl)-1-(2-methylpyridin-3-yl)-7-(trifluoromethyl)-2,3-dihydroquinazolin-4(1H)-one], the IC50 is 2.51 µM. For `Cc1[nH]c(=O)ccc1N1CN(c2ccc(F)cc2C(C)C)c2cc(C(F)(F)F)ccc2C1=O` [drawing 290, 1-(4-fluoro-2-isopropylphenyl)-3-(2-methyl-6-oxo-1,6-dihydropyridin-3-yl)-7-(trifluoromethyl)-2,3-dihydroquinazolin-4(1H)-one] the value was 0.00631 µM; for `CCc1[nH]c(=O)ccc1N1CN(c2ccc(F)cc2C)c2cc(C(F)(F)F)ccc2C1=O` [drawing 291, 3-(2-ethyl-6-oxo-1,6-dihydropyridin-3-yl)-1-(4-fluoro-2-methylphenyl)-7-(trifluoromethyl)-2,3-dihydroquinazolin-4(1H)-one], 0.02 µM.

On to `Cc1cc(F)ccc1N1CN(c2ccc(=O)[nH]c2Cl)C(=O)c2ccc(C(F)(F)F)cc21` [drawing 292, 3-(2-chloro-6-oxo-1,6-dihydropyridin-3-yl)-1-(4-fluoro-2-methylphenyl)-7-(trifluoromethyl)-2,3-dihydroquinazolin-4(1H)-one], for which the IC50 is 0.794 µM.

Regarding `Cc1cc(F)ccc1N1CN(c2ccc(=O)[nH]c2C)C(=O)c2cc(Cl)ccc21` [drawing 293, 6-chloro-1-(4-fluoro-2-methylphenyl)-3-(2-methyl-6-oxo-1,6-dihydropyridin-3-yl)-2,3-dihydroquinazolin-4(1H)-one], the IC50 was 0.01 µM. For `Cc1[nH]c(=O)ccc1N1CN(c2ccc(F)cc2)c2ccccc2C1=O` [drawing 294, 1-(4-fluorophenyl)-3-(2-methyl-6-oxo-1,6-dihydropyridin-3-yl)-2,3-dihydroquinazolin-4(1H)-one] the value was 5.01 µM; for `Cc1ccccc1N1CN(c2ccc(=O)[nH]c2C)C(=O)c2ccccc21` [drawing 295, 3-(2-methyl-6-oxo-1,6-dihydropyridin-3-yl)-1-(o-tolyl)-2,3-dihydroquinazolin-4(1H)-one], 0.631 µM; for `Cc1ccc2c(c1)C(=O)N(c1ccc(=O)[nH]c1C)CN2c1ccc(F)cc1C` [drawing 296, 1-(4-fluoro-2-methylphenyl)-6-methyl-3-(2-methyl-6-oxo-1,6-dihydropyridin-3-yl)-2,3-dihydroquinazolin-4(1H)-one], 0.0501 µM. For the compound `Cc1cc(F)ccc1N1CN(c2ccc(=O)[nH]c2C)C(=O)c2ccccc21` [drawing 297, 1-(4-fluoro-2-methylphenyl)-3-(2-methyl-6-oxo-1,6-dihydropyridin-3-yl)-2,3-dihydroquinazolin-4(1H)-one], the IC50 was 0.0631 µM. For `Cc1cc(F)ccc1N1CN(c2ccc(=O)[nH]c2C)C(=O)c2ccc(Br)cc21` [drawing 298, 7-bromo-1-(4-fluoro-2-methylphenyl)-3-(2-methyl-6-oxo-1,6-dihydropyridin-3-yl)-2,3-dihydroquinazolin-4(1H)-one] the value was 0.00316 µM. With `Cc1cc(F)ccc1N1CN(c2ccc(=O)[nH]c2C)C(=O)c2ccc(C#N)cc21` [drawing 299, 1-(4-fluoro-2-methylphenyl)-3-(2-methyl-6-oxo-1,6-dihydropyridin-3-yl)-4-oxo-1,2,3,4-tetrahydroquinazoline-7-carbonitrile], the IC50 was 0.0251 µM.

With `Cc1cc(F)ccc1N1CN(c2ccc(=O)[nH]c2C#N)C(=O)c2ccc(C(F)(F)F)cc21` [drawing 300, 3-(1-(4-fluoro-2-methylphenyl)-4-oxo-7-(trifluoromethyl)-1,4-dihydroquinazolin-3(2H)-yl)-6-oxo-1,6-dihydropyridine-2-carbonitrile], the IC50 is 0.251 µM. On to `Cc1[nH]c(=O)ccc1N1CN(c2ccc(F)cc2F)c2cc(C(F)(F)F)ccc2C1=O` [drawing 301, 1-(2,4-difluorophenyl)-3-(2-methyl-6-oxo-1,6-dihydropyridin-3-yl)-7-(trifluoromethyl)-2,3-dihydroquinazolin-4(1H)-one], for which the IC50 is 0.251 µM. On to `CCOc1ccc(N2CN(c3ccc(=O)[nH]c3C)C(=O)c3ccc(C(F)(F)F)cc32)cc1` [drawing 302, 1-(4-ethoxyphenyl)-3-(2-methyl-6-oxo-1,6-dihydropyridin-3-yl)-7-(trifluoromethyl)-2,3-dihydroquinazolin-4(1H)-one], for which the IC50 is 0.398 µM.

Take `Cc1cc(F)ccc1N1CN(c2ccc(=O)[nH]c2C)C(=O)c2ccc(OC(F)(F)F)cc21` [drawing 303, 1-(4-fluoro-2-methylphenyl)-3-(2-methyl-6-oxo-1,6-dihydropyridin-3-yl)-7-(trifluoromethoxy)-2,3-dihydroquinazolin-4(1H)-one]: the IC50 is 0.00316 µM. As for `Cc1ccc2c(c1)N(c1ccc(F)cc1C)CN(c1ccc(=O)[nH]c1C)C2=O` [drawing 304, 1-(4-fluoro-2-methylphenyl)-7-methyl-3-(2-methyl-6-oxo-1,6-dihydropyridin-3-yl)-2,3-dihydroquinazolin-4(1H)-one], the IC50 is 0.00158 µM.
